pIC50: −log10 of the molar value.
Tested on: HBV
Assay: Cryopreserved primary human hepatocytes (PHH) HBV infection assay, extracellular HBsAg by CLIA
Assay type: cell-based
Details: Hepatitis B virus, Hepatocyte, 216 h; HBV-infected cryopreserved PHH; extracellular HBsAg at 9 days post-compound treatment; 4 parameter logistic curve fit
Experimental: This assay is used to confirm the anti-HBV effect of the compounds in HBV PHH infection assay. Cryopreserved PHH (BioreclamationIVT, Lot YJM) was thawed at 37° C. and gently transferred into pre-warmed InVitroGRO HT medium (BioreclamationIVT, Cat. S03317). The mixture was centrifuged at 70 relative centrifugal force (RCF) for 3 min at RT, and the supernatant was discarded. Pre-warmed InVitroGRO CP medium (BioreclamationIVT, Cat #S03316) was added to the cell pellet to gently re-suspend cells. The cells were seeded at the density of 5.8×10^4 cells per well to collagen I coated 96-well plate (Gibco, Cat. A1142803) with the InVitroGRO CP medium. All plates were incubated at 37° C. with 5% CO2 and 85% humidity.
At 20 hrs after plating, the medium was changed to PHH culture medium (Dulbecco's Modified Eagle Medium (DMEM)/F12 (1:1) (Gibco, Cat. 11320-033), 10% fetal bovine serum (Gibco Cat. 10099141), 100 U/mL penicillin, 100 μg/mL streptomycin (Gibco, Cat. 151401-122), […] (Invitrogen Cat. PHG0311L), 20 ng/mL dexamethasone (Sigma, Cat. D4902) and 250 ng/mL human recombinant insulin (Gibco, Cat. 12585-014)). And the cells were incubated at 37° C. with 5% CO2 and 85% humidity for 4 hrs. The medium was then changed to pre-warmed PHH culture medium containing 4% polyethylene glycol (PEG) MW8000 (Sigma, Cat. P1458-50 ML) and 1% DMSO (Sigma, Cat. D2650). 5.8×10^6 genomic equivalents of HBV were added into the medium.
At 24 hrs post-infection, the cells were gently washed with PBS and refreshed with PHH culture medium supplemented with 1% DMSO, and 0.25 mg/mL Matrix gel (Corning, Cat. 356237) at 200 μL per well. All plates were immediately placed in at 37° C. CO2 incubator.
24 hrs later, serial dilutions of compounds made with DMSO were further diluted with the same culture medium (PHH culture medium supplemented with 1% DMSO and 0.25 mg/mL Matrix gel as described above) before they were added to the cells to reach desired final compound concentrations and 1% DMSO concentration. The medium containing the compounds were refreshed every three days.
At 9 days post-compound treatment, extracellular HBsAg level were measured with Chemiluminescence Immuno Assay (CLIA) kit (Autobio, HBsAg Quantitative CLIA).
HBsAg IC50 was derived from the dose-response curve using 4 parameter logistic curve fit method. The compounds of formula (I) have HBsAg IC50<20 μM, particularly <1 μM.

For `N#Cc1c(NCc2cccc(C(F)(F)F)c2)nc(NCC(F)(F)F)nc1-c1ccco1` [Example 13, 4-(2-furyl)-2-(2,2,2-trifluoroethylamino)-6-[[3-(trifluoromethyl)phenyl]methylamino]pyrimidine-5-carbonitrile], the pIC50 was 5.41.
In the case of `N#Cc1c(NCC2CCCCC2)ncnc1-c1ccco1` [Example 27, 4-(cyclohexylmethylamino)-6-(2-furyl)pyrimidine-5-carbonitrile], the pIC50 was 5.17.
With `N#Cc1c(NCc2ccccc2)ncnc1-c1ccco1` [Example 25, 4-(benzylamino)-6-(2-furyl)pyrimidine-5-carbonitrile] the pIC50 was 5.69.
`O=C(O)c1c(NCc2cccc(C(F)(F)F)c2)nc(N2CC3(CCC3)C2)nc1-c1ccco1` [Example 48, 2-(2-azaspiro[3.3]heptan-2-yl)-4-(2-furyl)-6-[[3-(trifluoromethyl)phenyl]methylamino]pyrimidine-5-carboxylic Acid] gave a pIC50 of 5.20.
Compound `CC(C)(C)OC(=O)N1CCN(C(=O)c2c(NCc3cccc(C(F)(F)F)c3)nc(N)nc2-c2ccco2)CC1` [Example 56, tert-butyl4-[2-amino-4-(2-furyl)-6-[[3-(trifluoromethyl)phenyl]methylamino]pyrimidine-5-carbonyl]piperazine-1-carboxylate] has a pIC50 of 5.02.
For `Cc1nc(NC2(c3ccccc3S(C)(=O)=O)CC2)c(C#N)c(-c2ccco2)n1` [Example 22, 4-(2-furyl)-2-methyl-6-[[1-(2-methylsulfonylphenyl)cyclopropyl]amino]pyrimidine-5-carbonitrile], the pIC50 was 5.56.
`COCCNc1nc(NC2(c3cccc(C(F)(F)F)c3)CC2)c(C(=O)O)c(-c2ccco2)n1` [Example 58, 4-(2-furyl)-2-(2-methoxyethylamino)-6-[[1-[3-(trifluoromethyl)phenyl]cyclopropyl]amino]pyrimidine-5-carboxylic Acid] was tested, and the pIC50 was 5.22.
Compound `Nc1nc(NCc2cccc(C(F)(F)F)c2)c(C(=O)O)c(-c2ccco2)n1` [Example 38, 2-amino-4-(2-furyl)-6-[[3-(trifluoromethyl)phenyl]methylamino]pyrimidine-5-carboxylic Acid] has a pIC50 of 5.60.
For `CCNc1nc(NC2(c3cccc(C(F)(F)F)c3)CC2)c(C(=O)O)c(-c2ccco2)n1` [Example 60, 2-(ethylamino)-4-(2-furyl)-6-[[1-[3-(trifluoromethyl)phenyl]cyclopropyl]amino]pyrimidine-5-carboxylic Acid], the pIC50 was 5.19.
For `CCCCOc1nc(NCc2cccc(C(F)(F)F)c2)c(C#N)c(-c2ccco2)n1` [Example 19, 2-butoxy-4-(2-furyl)-6-[[3-(trifluoromethyl)phenyl]methylamino]pyrimidine-5-carbonitrile], the pIC50 was 5.62.
`COc1nc(NC(C)c2cccc(C(F)(F)F)c2)cc(-c2ccco2)n1` (stereo not drawn) [Example 34, 6-(2-furyl)-2-methoxy-N-[1-[3-(trifluoromethyl)phenyl]ethyl]pyrimidin-4-amine] was tested, and the pIC50 was 5.46.
`Nc1nc(NCC2CCCC2)c(C(=O)O)c(-c2ccco2)n1` [Example 41, 2-amino-4-(cyclopentylmethylamino)-6-(2-furyl)pyrimidine-5-carboxylic acid] showed a pIC50 of 5.49.
`CCOC(=O)c1c(NCc2ccccc2Cl)ncnc1-c1ccco1` [Example 57, Ethyl 4-[(2-chlorophenyl)methylamino]-6-(2-furyl)pyrimidine-5-carboxylate] was tested, and the pIC50 was 5.37.
With `CS(=O)(=O)c1ccccc1C1(Nc2nc(N)nc(-c3ccco3)c2C#N)CC1` [Example 7, 2-amino-4-(2-furyl)-6-[[1-(2-methylsulfonylphenyl)cyclopropyl]amino]pyrimidine-5-carbonitrile] the pIC50 was 5.75.
`COc1c(NCc2cccc(C(F)(F)F)c2)nc(N)nc1-c1ccco1` [Example 35, 6-(2-furyl)-5-methoxy-N4-[[3-(trifluoromethyl)phenyl]methyl]pyrimidine-2,4-diamine] gave a pIC50 of 5.11.
Compound `COCCNc1nc(NCc2cccc(C(F)(F)F)c2)c(C#N)c(-c2ccco2)n1` [Example 12, 4-(2-furyl)-2-(2-methoxyethylamino)-6-[[3-(trifluoromethyl)phenyl]methylamino]pyrimidine-5-carbonitrile] has a pIC50 of 5.41.
Work on `N#Cc1c(NCC(F)Cc2ccccc2Cl)nc(N)nc1-c1ccco1` (stereo not drawn) [Example 4, 2-amino-4-[[3-(2-chlorophenyl)-2-fluoro-propyl]amino]-6-(2-furyl)pyrimidine-5-carbonitrile] yielded a pIC50 of 4.94.
For `CCOC(=O)c1c(NCc2cccc(C(F)(F)F)c2)nc(SC)nc1-c1ccco1` [Example 45, Ethyl 4-(2-furyl)-2-methylsulfanyl-6-[[3-(trifluoromethyl)phenyl]methylamino]pyrimidine-5-carboxylate], the pIC50 was 5.09.
`Cc1nc(NCc2ccccc2)c(C#N)c(-c2ccco2)n1` [Example 23, 4-(benzylamino)-6-(2-furyl)-2-methyl-pyrimidine-5-carbonitrile] was tested, and the pIC50 was 5.16.
With `COc1ccccc1CNc1nc(N)nc(-c2ccco2)c1C(=O)O` [Example 40, 2-amino-4-(2-furyl)-6-[(2-methoxyphenyl)methylamino]pyrimidine-5-carboxylic Acid] the pIC50 was 5.18.
`Nc1nc(NCc2ccccc2N)cc(-c2cccs2)n1` [Example 36, N4-[(2-aminophenyl)methyl]-6-(2-thienyl)pyrimidine-2,4-diamine] showed a pIC50 of 5.18.
`CCOC(=O)c1c(NCc2cccc(C(F)(F)F)c2)nc(N2CC3(CCC3)C2)nc1-c1ccco1` [Example 47, Ethyl 2-(2-azaspiro[3.3]heptan-2-yl)-4-(2-furyl)-6-[[3-(trifluoromethyl)phenyl]methylamino]pyrimidine-5-carboxylate] showed a pIC50 of 5.49.
`CCCNc1nc(NCc2cccc(C(F)(F)F)c2)c(C#N)c(-c2ccco2)n1` [Example 15, 4-(2-furyl)-2-(propylamino)-6-[[3-(trifluoromethyl)phenyl]methylamino]pyrimidine-5-carbonitrile] gave a pIC50 of 5.52.
`N#Cc1c(NCC2CCCCC2)nc(N)nc1-c1ccco1` [Example 10, 2-amino-4-(cyclohexylmethylamino)-6-(2-furyl)pyrimidine-5-carbonitrile] was tested, and the pIC50 was 5.44.
With `CC(C)CNc1nc(NCc2cccc(C(F)(F)F)c2)c(C(=O)O)c(-c2ccco2)n1` [Example 50, 4-(2-furyl)-2-(isobutylamino)-6-[[3-(trifluoromethyl)phenyl]methylamino]pyrimidine-5-carboxylic Acid] the pIC50 was 5.06.
`CSc1nc(NCc2cccc(C(F)(F)F)c2)c(C#N)c(-c2ccco2)n1` [Example 11, 4-(2-furyl)-2-methylsulfanyl-6-[[3-(trifluoromethyl)phenyl]methylamino]pyrimidine-5-carbonitrile] gave a pIC50 of 5.63.
`Nc1nc(NCc2ccc(Cl)cc2)c(C(=O)O)c(-c2ccco2)n1` [Example 37, 2-amino-4-[(4-chlorophenyl)methylamino]-6-(2-furyl)pyrimidine-5-carboxylic Acid] showed a pIC50 of 5.53.
